6 molecules from US20050085644A1, “Novel 3-aryl-2,5-dihydroxy-1,4-benzoquinone derivatives, their preparation method and pharmaceutical compositions containing same” (priority 2002, published 2005) can be followed below.

One data set has as its system ob/ob C57BL/6 mice. Description: Chronic in vivo study in ob/ob mice. To be noted: female ob/ob C57BL/6 mice, 9 days, 10 or 20 mg/kg po. Here is the method: 11-week-old female ob/ob C57BL/6 mice randomly selected in terms of basal glycaemia from animals that have been fed are treated for 9 days with the test compound at 10 or 20 mg/kg po and compared with a control group receiving 1% HEC. Biological balance (glycaemia, insulinaemia, triglyceridaemia) is reached on the 10th day with the animals that have been fed, the final treatment having taken place the day before. The results are expressed as percentage variations in relation to D0 (glycaemia, body weight) compared with the control group.

A further data set addresses T1, human insulin receptors (Homo sapiens, UniProt P06213).
T1 construct: expressed in transfected cells; host or cells: CHO-HIR (hamster ovary cells)
The experiment in a line: Activation (phosphorylation) of insulin receptors in CHO-HIR cells, immunoblotting. To be noted: 2 h, 10^−5M, two hours at 37° C., read-out: activation percentage for insulin receptors (phosphorylation in relation to 50 nM insulin fixed at 100%). Type of data set: cell-based. The method, then:
(§1) The pharmacological effect of the compounds of the invention on cellular signaling is evaluated in vitro using hamster ovary cells transfected with human insulin receptors (CHO-HIR). The techniques employed are from TAVARE and DENTON (1988, BIOCHEM. J., 250, 509-519) and TAVARE et al. (1988, Biochem. J., 253, 783-788) modified by ISSAD et al. (1991, Biochem. J., 275, 15-21) and COMBETTES-SOUVERAIN et al. (1997, Diabetologia, 40, 533-540).
(§2) The products are studied at 10^−5M under incubation for two hours at 37° C. with CHO-HIR in culture. A negative control (solvent) and a positive control (insulin 50 nM, 5 min incubation) are used in parallel in the same test. […]
(§3) The phosphorylation of the insulin receptors (IR) and the phosphorylation of protein kinase B are evaluated by immunoblotting as follows.
The IR are extracted over wheatgerm lectin; the samples are then subjected to electrophoresis on 7.5% polyacrylamide gel and subjected to an electric transfer onto PDVF membrane in a semi-dry system. […] After dehydridisation and then rehydridisation with an anit-insulin receptor β subunit antibody (βsubunit, ref 06492, Upstate Biotechnology), the total IR quantity deposited on blot is evaluated by chemiluminescence and the phosphorylation rate of the receptors is related to the total receptor quantity deposited. […]
(Immunoblotting shows a protein as a band on a membrane.)

Another data set deals with protein kinase B. The experiment in a line: Activation (phosphorylation) of protein kinase B in CHO-HIR cells, immunoblotting. Particulars: 10^−5M, two hours at 37° C. In kind it is cell-based, hamster. The method, then:
as §1, §2, §3
Similarly, the state of phosphorylation of protein kinase B following electrophoresis of the samples on 10% polyacrylamide gel is determined by chemiluminescence after immunoblotting with anti-phospho protein kinase B antibodies (phospho Akt(Ser473) antibody, ref 9271, Cell Signaling) and then related to the total protein kinase B quantity (AKT antibody, ref 9272, Cell signaling).
The phosphorylation induced by the compounds of the invention is expressed as a percentage in relation to 50 nM insulin, fixed at 100% activation.

T1 sequence (P06213 28-758 limits assumed): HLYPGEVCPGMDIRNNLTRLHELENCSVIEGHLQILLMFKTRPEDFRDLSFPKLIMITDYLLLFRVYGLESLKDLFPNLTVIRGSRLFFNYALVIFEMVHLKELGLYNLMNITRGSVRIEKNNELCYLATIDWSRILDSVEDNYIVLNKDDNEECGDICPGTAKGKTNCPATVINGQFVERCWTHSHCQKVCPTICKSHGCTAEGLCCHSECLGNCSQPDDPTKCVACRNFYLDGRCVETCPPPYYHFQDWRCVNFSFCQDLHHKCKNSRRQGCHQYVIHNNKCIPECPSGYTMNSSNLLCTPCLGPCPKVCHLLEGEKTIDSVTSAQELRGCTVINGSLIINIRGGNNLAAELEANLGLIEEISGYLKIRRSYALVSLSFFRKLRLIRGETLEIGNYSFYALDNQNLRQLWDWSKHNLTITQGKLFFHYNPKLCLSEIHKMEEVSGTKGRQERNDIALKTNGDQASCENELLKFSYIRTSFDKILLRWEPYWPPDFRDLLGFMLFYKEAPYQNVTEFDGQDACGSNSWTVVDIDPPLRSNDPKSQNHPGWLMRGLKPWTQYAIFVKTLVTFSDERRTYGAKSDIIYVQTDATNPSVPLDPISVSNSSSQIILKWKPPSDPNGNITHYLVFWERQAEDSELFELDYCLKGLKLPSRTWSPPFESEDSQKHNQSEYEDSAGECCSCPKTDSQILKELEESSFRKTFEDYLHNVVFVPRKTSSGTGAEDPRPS

Molecule `O=C1C(O)=C(c2ccccc2)C(=O)C(O)=C1/C=C/c1ccc(Br)cc1` [Example 3, 2,5-Dihydroxy-3-phenyl-6-[(E)-2-(4-bromophenyl)-ethenyl]-1,4-benzoquinone] yielded a melting point of 240 to 241 °C.
Molecule `O=C1C(O)=C(c2ccccc2)C(=O)C(O)=C1/C=C/c1ccccc1` [Example 1, 2,5-Dihydroxy-3-phenyl-6-[(E)-2-phenylethenyl]-1,4-benzoquinone] registered a melting point of 259 to 260 °C. In the data set with ob/ob C57BL/6 mice (fed, 10th day), the “triglycerides, reduction compared with the control” value is on record as −37.8%.
In the case of `O=C1C(O)=C(c2ccccc2)C(=O)C(O)=C1/C=C/c1ccc(F)cc1` [Example 27, 2-[(E)-2-(4-Fluorophenyl)ethenyl]-3,6-dihydroxy-5-phenyl-1,4-benzoquinone], the activation at 10 µM at human insulin receptors stood at 87.7%. Moreover, the “activation percentage for protein kinase B (phosphorylation in relation to 50 nM insulin fixed at 100%)” value in the data set with protein kinase B is 48.9%.
For the molecule `O=C1C(O)=C(c2cccc(Cl)c2)C(=O)C(O)=C1/C=C/c1ccccc1` [Example 30, 2-(3-Chlorophenyl)-3,6-dihydroxy-5-[(E)-2-phenylethenyl]-1,4-benzoquinone], the activation at 10 µM on human insulin receptors stood at 134%.
For the molecule `C/C(=C\c1ccccc1)C1=C(O)C(=O)C(c2ccccc2)=C(O)C1=O` [Example 10, 2,5-Dihydroxy-3-[(E)-1-methyl-2-phenylethenyl]-6-phenyl-1,4-benzoquinone], in the data set with protein kinase B, the “activation percentage for protein kinase B (phosphorylation in relation to 50 nM insulin fixed at 100%)” value amounted to 91%.
For the molecule `O=C1C(O)=C(c2ccc3ccccc3c2)C(=O)C(O)=C1c1ccc(Cl)cc1` [Example 16, 2-(4-Chlorophenyl)-3,6-dihydroxy-5-(2-naphthyl)-1,4-benzoquinone], the “insulinaemia, variation compared with the controls” value with ob/ob C57BL/6 mice (fed, 10th day) is given as −84.2%. Moreover, the “glycaemia, percentage variation in relation to D0” value in the data set on ob/ob C57BL/6 mice (fed, 10th day, controls +4.5%) is on record as −60.7%. Also, the “body weight, percentage variation in relation to D0” value in the data set on ob/ob C57BL/6 mice (control group +4.9%) is −26.9%.

Usually melting point stands for the temperature, or range, at which the solid turns liquid.
